Measurements taken from patent EP1914304A1 (priority 1998, dated 1999).
pIC50: −log10 of the molar value. Where “and” joins values, the source holds several entries; their conditions need not be identical. Equal values may be shown once.

How the values were obtained:
[1] = target: HSV-1 thymidine kinase mutant TKI 208 (Leu-170 to Val), SEQ ID 23 (codons 165-175) (Human herpesvirus 1, UniProt P06478, L170V); format: biochemical, Herpes Simplex Virus Type 1; conditions: Table I; purified enzyme, 34°C, 10 minutes
Protocol: (§1) Purification of wild-type and mutant TKs was performed by affinity chromatography on CH-Sepharose 4B (Pharmacia) coupled to p-aminophenylthymidine 3'-phosphate. Briefly, crude bacterial extract was passed three times through a 7-mL bed-volume affinity column. The column was then washed sequentially using 30 mL each of buffer A [0.1 M Tris HCl, pH 7.5/5 mM dithiothreitol (DTT)/10% glycerol], buffer B (0.1M Tris-HCl, pH 7.5/0.5 M KCl/5 mM DTT/10% glycerol), and buffer A. TK was eluted using a 60-mL linear gradient of 0-600 µM dT in buffer C (0.3 M Tris HCl, pH 7.4/50 mM KCl/10% glycerol). Active fractions were pooled and dialyzed against three changes each of 2 liters of 50 mM Tris-HCl, pH 7.4/5 mM DTT/10% glycerol. Except in the final dialysis, all the above buffers contained 50 µg/mL of aprotinin and 2 µg/mL each of pepstatin and leupeptin.
(§2) Secondly, the kinetics of AZT phosphorylation by the two mutants was determined. […] (One unit of enzyme is defined as that amount that can phosphorylate 1.0 pmol of dT to TMP in 1 minute under the conditions described above.) Incubation was at 34°C ± 1°C for 10 minutes, and reactions were stopped by adding 1.0 mM unlabeled dT and cooling on ice. Half of the reaction mixtures were pipetted onto a DEAE-cellulose disc (25 mm), dipped in distilled water (1 minute), followed by four washes in absolute ethanol. The amount of radioactivity adsorbed to the disc was determined by scintillation spectroscopy. […] All other components in the reaction mixtures and the incubation conditions were as described above for phosphorylation of AZT.
(§3) All buffers used in the purification of TK contained 5mM DTT, 50 µ/mL aprotinin, 2 µg/mL each of leupeptin and pepstatin and I mM PMSF unless otherwise indicated. […] TK assay was performed on all the fractions and peak TK - fractions were pooled and dialyzed against three changes of 21 of dialysis buffer (50 mM Tris-HCl, pH 7.4, 5 mM DTT, 10% glycerol). In the final dialysis, protease inhibitors were omitted from the buffer and the dialyzed fractions were aliquoted and stored at -70°C. The column was washed thoroughly twice by using the same washing and elution protocols as described above prior to application of each extract preparation.
(§4) Kinetic parameters were determined essentially as described below. […] Incubation was at 34 ± 1°C for 10 minutes. […] Half of the reaction mix was pipetted onto a DEAE-cellulose disc (25 mm) and the disc was dipped in distilled water (1 minute) followed by four washes each in 10 mL of absolute ethanol. The adsorbed products on the disc were counted in a scintillation counter.

[2] = target: HSV-1 thymidine kinase, wild-type (pMCC), SEQ ID 13 (codons 165-175) (Human herpesvirus 1, UniProt P06478); format: biochemical, Herpes Simplex Virus Type 1; conditions: Table I; purified enzyme, 34°C, 10 minutes
Protocol: as §1, §2, §3, §4

[3] = target: HSV-1 thymidine kinase mutant TKF 105 (Leu-170 to Ile) (Human herpesvirus 1, UniProt P06478, L170I); assay: Kinetics of AZT phosphorylation by purified TK (preliminary experiments); format: biochemical, Herpes Simplex Virus Type 1; conditions: preliminary experiments with purified TKF 105 TK
Protocol: as §1, with “Briefly,” for “Purification of wild-type and mutant TKs was performed by affinity chromatography on CH-Sepharose 4B (Pharmacia) coupled to p-aminophenylthymidine 3'-phosphate. Briefly,”
Secondly, the kinetics of AZT phosphorylation by the two mutants was determined. Briefly, reactions were carried out in a final volume of 100 µl containing 50 mM Tris-HCl (pH 7.5), 5 mM ATP. […] The amount of radioactivity adsorbed to the disc was determined by scintillation spectroscopy. Km and Vmax values were determined by using the Cleland SUBIN program (Cleland, Methods Enz. 63:103-138, 1979). The values for kcat were calculated using the equation Vmax = kcat[E]0, where [E]o = total enzyme concentration. […]

[4] = system: BHK tk- cells transfected with pREP8D7:dualGFP expressing TK mutant SR39; assay: ACV kill curves of transfectant pools; format: cell-based, baby hamster; conditions: Mesocricetus auratus, Table VII
Source text: (§5) The seven mutants were subcloned into the mammalian expression vector, pREP8D7:dualGFP. This vector contains a constitutive metallothionin promoter, which drives the expression of green flourescent protein (GFP), and an RSV LTR promoter, which stimulated expression of the TK mutants. The vector also contains a histidinol resistance gene for selection of transformants. Purified vector DNA of these constructs was used to transfect BHK tk- cells by electroporation. The transfectants were selected by resistance to histidinol and sorted using FACS analysis for GFP expression. Pools of transfectants were then assayed for sensitivity to GCV or ACV over a range of prodrug doses. […] Table VIII illustrates the IC50 values from Rat C6 kill curves with the SR11, SR26, and SR39 mutants.

[5] = system: BHK tk- cells transfected with pREP8D7:dualGFP expressing wild-type TK; assay: ACV kill curves of transfectant pools; format: cell-based, baby hamster; conditions: Mesocricetus auratus, Table VII
Source text: as §5

[6] = system: BHK tk- cells transfected with pREP8D7:dualGFP expressing TK mutant 75; assay: ACV kill curves of transfectant pools; format: cell-based, baby hamster; conditions: Mesocricetus auratus, Table VII
Source text: as §5

[7] = system: BHK tk- cells transfected with pREP8D7:dualGFP expressing TK mutant SR11; assay: ACV kill curves of transfectant pools; format: cell-based, baby hamster; conditions: Mesocricetus auratus, Table VII
Source text: as §5

[8] = system: BHK tk- cells transfected with pREP8D7:dualGFP expressing TK mutant SR26; assay: ACV kill curves of transfectant pools; format: cell-based, baby hamster; conditions: Mesocricetus auratus, Table VII
Source text: as §5

HSV-1 thymidine kinase, wild-type (pMCC), SEQ ID 13 (codons 165-175), sequence (P06478 whole entry, looked up): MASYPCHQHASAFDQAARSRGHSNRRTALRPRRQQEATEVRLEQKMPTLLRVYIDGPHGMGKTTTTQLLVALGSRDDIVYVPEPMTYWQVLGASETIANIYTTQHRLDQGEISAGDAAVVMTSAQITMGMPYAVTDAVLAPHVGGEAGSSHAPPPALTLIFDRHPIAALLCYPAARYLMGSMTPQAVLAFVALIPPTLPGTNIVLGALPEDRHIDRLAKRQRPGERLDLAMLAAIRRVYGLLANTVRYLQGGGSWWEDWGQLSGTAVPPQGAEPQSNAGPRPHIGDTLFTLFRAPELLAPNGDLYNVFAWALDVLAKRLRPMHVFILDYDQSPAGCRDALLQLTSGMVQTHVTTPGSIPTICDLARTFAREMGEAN
HSV-1 thymidine kinase mutant TKI 208 (Leu-170 to Val), SEQ ID 23 (codons 165-175), sequence (P06478 whole entry L170V, looked up): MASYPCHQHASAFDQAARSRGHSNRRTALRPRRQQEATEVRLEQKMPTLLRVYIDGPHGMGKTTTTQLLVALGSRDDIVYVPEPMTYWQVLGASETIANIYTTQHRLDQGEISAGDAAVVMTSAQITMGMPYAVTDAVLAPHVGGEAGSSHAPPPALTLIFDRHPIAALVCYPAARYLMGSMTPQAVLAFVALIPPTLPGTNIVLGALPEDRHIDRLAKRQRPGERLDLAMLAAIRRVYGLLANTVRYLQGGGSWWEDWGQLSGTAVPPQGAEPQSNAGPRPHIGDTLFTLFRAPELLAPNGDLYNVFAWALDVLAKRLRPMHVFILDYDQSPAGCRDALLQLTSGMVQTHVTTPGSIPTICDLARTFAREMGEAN
HSV-1 thymidine kinase mutant TKF 105 (Leu-170 to Ile), sequence (P06478 whole entry L170I): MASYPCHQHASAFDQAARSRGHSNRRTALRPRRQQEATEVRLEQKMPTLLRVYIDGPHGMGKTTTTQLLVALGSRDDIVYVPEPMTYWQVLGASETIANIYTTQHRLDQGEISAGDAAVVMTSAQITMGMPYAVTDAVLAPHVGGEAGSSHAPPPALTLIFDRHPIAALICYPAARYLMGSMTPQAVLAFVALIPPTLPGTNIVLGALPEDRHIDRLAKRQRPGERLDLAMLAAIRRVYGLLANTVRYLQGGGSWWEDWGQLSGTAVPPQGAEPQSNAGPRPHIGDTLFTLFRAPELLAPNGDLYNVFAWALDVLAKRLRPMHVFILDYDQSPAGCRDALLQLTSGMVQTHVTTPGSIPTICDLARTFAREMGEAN

| SMILES | Km [1] | kcat [1] | Km [2] | kcat [2] | Km [3] | pIC50 [4] | pIC50 [5] | pIC50 [6] | pIC50 [7] | pIC50 [8] |
| --- | --- | --- | --- | --- | --- | --- | --- | --- | --- | --- |
| Cc1cn([C@H]2C[C@H](N=[N+]=[N-])[C@@H](CO)O2)c(=O)[nH]c1=O [AZT, 3' azido-3' thymidine] | 4.4 µM | 0.03 s⁻¹ | 8.5 µM and 8.46 µM | 0.036 s⁻¹ | 3.7 µM | – | – | – | – | – |
| Nc1nc2c(ncn2COCCO)c(=O)[nH]1 [acyclovir] | – | – | – | – | – | 7.52 | 6.70 | 7.22 | 7.60 | 7.46 |
